We go through 13 compounds from ChEMBL document CHEMBL1201862, “PubChem BioAssay data set” (2004).

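Method: 48-hour compound exposure of cells in 96-well plates, five concentrations, linear interpolation of endpoints. GI50 is the concentration that inhibits growth by half.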 Active and inactive are the calls of the source. Rule as the data show it: active = GI50 up to about 1.1 µM and inactive = higher.

Test systems include TK-10; SF-539; HCT-15; BT-549; CCRF-CEM; Hs-578T; UACC-257; COLO 205; SR; OVCAR-5; RPMI-8226; KM12; MOLT-4; NCI-H23; SK-OV-3; SK-MEL-2; SW-620; Malme-3M.
Holding throughout (test): NCI tumour cell line growth inhibition, 48 h

As to `c1ccc2c(c1)nc1n2sc2nc3ccccc3n21`, the GI50 was > 100 µM (inactive) in the assay with TK-10; > 100 µM (inactive) with SF-539; over 100 µM in the assay with HCT-15; > 100 µM (inactive) with BT-549; > 100 µM (inactive) in the assay with CCRF-CEM; > 100 µM (inactive) with Hs-578T. Moreover, the GI50 with UACC-257, in the assay on COLO 205, with SR, in the assay on OVCAR-5, with RPMI-8226 and with KM12 was > 100 µM (inactive) in each case. The GI50 in the assay with MOLT-4, in the assay with NCI-H23, with SK-OV-3, in the assay with SK-MEL-2 and in the assay with SW-620 was > 100 µM (inactive) throughout.
Regarding `CCn1c(=O)c2c3ccc(O)cc3oc2c2ccc(O)cc21`, the GI50 with TK-10 was 44 µM (inactive); in the assay on SF-539 it was 34.9 µM (inactive); in the assay on HCT-15, 39.4 µM; with BT-549, 26.1 µM (inactive); in the assay on CCRF-CEM it was 28.2 µM (inactive); in the assay with Hs-578T, 14.6 µM (inactive). Besides, the GI50 in the assay on UACC-257 is > 100 µM (inactive); with COLO 205, 44.7 µM (inactive); in the assay on SR, 27.6 µM (inactive); in the assay with KM12, 49.1 µM (inactive); with MOLT-4 it was 25.5 µM (inactive); with NCI-H23, 37.4 µM (inactive). Moreover, the GI50 in the assay on SK-OV-3 was 38.5 µM (inactive); with Malme-3M, 41.7 µM (inactive); with SW-620, 41 µM (inactive).
As for `CSc1ncnc2c1cnn2Cc1cn(COCCO)nn1`, the GI50 in the assay on TK-10 was > 100 µM (inactive); in the assay on SF-539, > 100 µM (inactive); in the assay with HCT-15, over 100 µM; with BT-549, > 100 µM (inactive); in the assay on CCRF-CEM, 43.5 µM (inactive); with Hs-578T it was > 100 µM (inactive). Further, the GI50 in the assay with UACC-257 was > 100 µM (inactive); with COLO 205, 33.9 µM (inactive); in the assay with SR, 12.5 µM (inactive); in the assay with OVCAR-5 it was 88.5 µM (inactive); with RPMI-8226, 34.3 µM (inactive); in the assay on KM12, 23.2 µM (inactive). The GI50 in the assay on NCI-H23 was 49.7 µM (inactive); in the assay on SK-OV-3, 47.6 µM (inactive); in the assay on SK-MEL-2 it was 39 µM (inactive); in the assay on Malme-3M it was > 100 µM (inactive); in the assay on SW-620 it was 44.3 µM (inactive).
Consider `CCOC(=O)c1sc(N/N=C2\NC(=O)/C(=C/c3ccc([N+](=O)[O-])cc3)S2)nc1C`, for which the GI50 is 35.3 µM (inactive) with TK-10; 18.7 µM (inactive) with SF-539; 19.7 µM in the assay on HCT-15; 24 µM (inactive) in the assay on BT-549; 15.1 µM (inactive) with CCRF-CEM; 33.9 µM (inactive) with Hs-578T. Further, the GI50 is 15.6 µM (inactive) with UACC-257; 25.1 µM (inactive) in the assay with COLO 205; 6.65 µM (inactive) in the assay on SR; 22.6 µM (inactive) in the assay on OVCAR-5; 15.5 µM (inactive) in the assay on KM12; 10.3 µM (inactive) in the assay with MOLT-4. In addition, the GI50 in the assay with NCI-H23 was 24.4 µM (inactive); with SK-OV-3, 31.4 µM (inactive); in the assay on SK-MEL-2 it was 24.8 µM (inactive); in the assay on SW-620 it was 31.8 µM (inactive).
For the compound `COc1cccc(C2c3cc4c(cc3OC3COC(=O)C32)OCO4)c1OC` (stereo not drawn), the GI50 was > 100 µM (inactive) with TK-10; > 100 µM (inactive) in the assay with SF-539; 34.8 µM in the assay with HCT-15; > 100 µM (inactive) with BT-549; > 100 µM (inactive) in the assay with CCRF-CEM; 32.7 µM (inactive) with Hs-578T. Besides, the GI50 is > 100 µM (inactive) with UACC-257; > 100 µM (inactive) in the assay on COLO 205; > 100 µM (inactive) in the assay with OVCAR-5; > 100 µM (inactive) in the assay on KM12; > 100 µM (inactive) with MOLT-4; 57.8 µM (inactive) in the assay on SK-OV-3. Also, the results for the GI50 in the assay on SK-MEL-2, in the assay with Malme-3M and in the assay on SW-620 were 49.4 µM (inactive), > 100 µM (inactive) and > 100 µM (inactive), respectively.
As for `COc1cc(NCc2ccc3n2-c2ccccc2OC3)cc(OC)c1OC`, the GI50 with TK-10 was 32.5 µM (inactive); with HCT-15, 29.9 µM; in the assay on BT-549 it was 24.2 µM (inactive); in the assay on CCRF-CEM, 12.6 µM (inactive); with Hs-578T, 35.4 µM (inactive); in the assay on UACC-257 it was 20.1 µM (inactive). In addition, the GI50 in the assay with COLO 205 was 12.9 µM (inactive); in the assay on SR, 11.8 µM (inactive); in the assay with OVCAR-5 it was 46.5 µM (inactive); in the assay with RPMI-8226, 7.89 µM (inactive); with KM12, 40.7 µM (inactive); in the assay on NCI-H23, 35.2 µM (inactive). The GI50 was 20 µM (inactive) in the assay with SK-MEL-2, 15.1 µM (inactive) with Malme-3M and 35.6 µM (inactive) with SW-620.
With `CCn1c(-c2ccc(OC)cc2)nc2c1C(=O)c1ccccc1C2=O`, the GI50 in the assay on TK-10 was > 100 µM (inactive); with SF-539, > 100 µM (inactive); with HCT-15, over 100 µM; with BT-549, 67.6 µM (inactive); in the assay on CCRF-CEM it was > 100 µM (inactive); with Hs-578T, > 100 µM (inactive). In addition, the GI50 in the assay with UACC-257, with COLO 205, in the assay on SR, with OVCAR-5, in the assay on RPMI-8226 and in the assay with KM12 was > 100 µM (inactive) each time. The GI50 in the assay on MOLT-4, with NCI-H23, in the assay on SK-OV-3, with Malme-3M and in the assay on SW-620 was > 100 µM (inactive) in each case.
In the case of `COCCOCCOC1=CC(=O)c2c(O)ccc(O)c2C1=O`, the GI50 in the assay with TK-10 is 2.93 µM (inactive); in the assay with SF-539, 2.07 µM (inactive); in the assay with BT-549, 1.79 µM (inactive); in the assay with CCRF-CEM it was 1.41 µM (inactive); in the assay on Hs-578T, 2.47 µM (inactive); in the assay with UACC-257, 0.397 µM (active). Also, the GI50 in the assay with COLO 205 was 0.296 µM (active); with SR it was 1.19 µM (inactive); with RPMI-8226, 1.37 µM (inactive); with KM12, 1.83 µM (inactive); with MOLT-4, 2.04 µM (inactive); in the assay with NCI-H23, 1.69 µM (inactive). Further, the GI50 was > 10 µM (inactive) in the assay with SK-OV-3, 1.84 µM (inactive) with SK-MEL-2, 0.149 µM (active) with Malme-3M and 0.571 µM (active) with SW-620.
Consider `CCCCC(CCCC)=NNC(=S)SC`, for which the GI50 in the assay with TK-10 is 17 µM (inactive); in the assay on SF-539 it was 26.2 µM (inactive); with HCT-15, 34.2 µM; with BT-549, 42 µM (inactive); in the assay on Hs-578T, 44.2 µM (inactive); with UACC-257, 24.9 µM (inactive). Moreover, the GI50 with COLO 205 is 36.4 µM (inactive); with OVCAR-5 it was 38.2 µM (inactive); in the assay on MOLT-4, 18 µM (inactive); with NCI-H23, 33.7 µM (inactive); with SK-OV-3, > 100 µM (inactive); with SK-MEL-2 it was 36.4 µM (inactive). Also, the GI50 in the assay with Malme-3M is 13.1 µM (inactive); in the assay with SW-620, 38.9 µM (inactive).
`CC(NC(=N)N)C(=O)O` (stereo not drawn): the GI50 in the assay on TK-10 is > 100 µM (inactive); in the assay with HCT-15 it was over 100 µM; in the assay on BT-549 it was > 100 µM (inactive); with CCRF-CEM, > 100 µM (inactive); in the assay with Hs-578T it was > 100 µM (inactive); in the assay with UACC-257, > 100 µM (inactive). In addition, the GI50 with COLO 205, in the assay with SR, in the assay on OVCAR-5, in the assay with RPMI-8226, with KM12 and in the assay with MOLT-4 was > 100 µM (inactive) throughout. Moreover, the GI50 in the assay on NCI-H23, in the assay on SK-OV-3, in the assay on SK-MEL-2, in the assay on Malme-3M and with SW-620 was > 100 µM (inactive) throughout.
As to `CCN1C(=O)c2ccccc2C1(O)c1ccc(Cl)cc1` (stereo not drawn), the GI50 with TK-10 is 94.4 µM (inactive); in the assay on SF-539 it was > 100 µM (inactive); in the assay with HCT-15 it was over 100 µM; with BT-549, > 100 µM (inactive); in the assay on CCRF-CEM, 59.8 µM (inactive); in the assay on Hs-578T, > 100 µM (inactive). Besides, the GI50 was 75.5 µM (inactive) in the assay with UACC-257; 35.6 µM (inactive) in the assay with COLO 205; 41.2 µM (inactive) in the assay with SR; 88.1 µM (inactive) with OVCAR-5; 61.9 µM (inactive) in the assay with RPMI-8226; 46 µM (inactive) with KM12. Also, the GI50 with MOLT-4 is 47.3 µM (inactive); with NCI-H23, 38.2 µM (inactive); with SK-OV-3 it was 24.4 µM (inactive); in the assay with SK-MEL-2 it was 18.7 µM (inactive); in the assay with SW-620, > 100 µM (inactive).
Regarding `O=[N+]([O-])c1cc([N+](=O)[O-])c(Nn2c3ccccc3c3ccccc32)c([N+](=O)[O-])c1`, the GI50 is 2.2 µM (inactive) with TK-10; 2.12 µM (inactive) with SF-539; 2.58 µM with HCT-15; 2.18 µM (inactive) in the assay with BT-549; 2.16 µM (inactive) in the assay on CCRF-CEM; 2.46 µM (inactive) in the assay on Hs-578T. The GI50 is 2.56 µM (inactive) in the assay on COLO 205; 0.94 µM (active) in the assay with SR; 4.63 µM (inactive) in the assay with OVCAR-5; 0.65 µM (active) in the assay with RPMI-8226; 0.622 µM (active) with KM12; 0.69 µM (active) with MOLT-4. Also, the results for the GI50 in the assay with NCI-H23, in the assay on Malme-3M and in the assay on SW-620 were 1.43 µM (inactive), 1.42 µM (inactive) and 3.02 µM (inactive), respectively.
`COP(=O)(OC)[C@@](O)(c1ccccc1)[C@@H](O)[C@H](O)c1ccccc1`: the GI50 with TK-10 is > 100 µM (inactive); in the assay with SF-539, 38.4 µM (inactive); in the assay on HCT-15, over 100 µM; with BT-549, > 100 µM (inactive); in the assay on CCRF-CEM it was 18.3 µM (inactive); with Hs-578T it was > 100 µM (inactive). The GI50 in the assay with UACC-257, in the assay with COLO 205, in the assay on SR, with OVCAR-5, in the assay on KM12 and with MOLT-4 was > 100 µM (inactive) throughout. Besides, the GI50 was > 100 µM (inactive) in the assay with NCI-H23; > 100 µM (inactive) in the assay on SK-OV-3; > 100 µM (inactive) in the assay on SK-MEL-2; > 100 µM (inactive) with Malme-3M; 42.2 µM (inactive) in the assay with SW-620.
